Assay results published in patent publication US8287934B2, “Use of diacetyl dimer as an aromatic and/or flavouring substance” (Symrise AG, priority 2006, dated 2012).

Tests used:
[1] = Tasting in sweet/salty solution (flavour profile by testers); assay type: in vivo
Experimental: The actions found were evaluated with a scale of from 1 (action scarcely perceptible) to 9 (action highly perceptible).
The 5-acetyl-2,5-dimethyl-2-hydroxy-tetrahydrofuran-3-one from Example 1 (2 ppm diacetyl dimer of formula (I) in aqueous 5 wt. % sucrose or 0.5% sodium chloride solution) was investigated for its flavouring action by 9 testers.
The 2,5-diacetyl-3a,5,6,6a-tetrahydro-6a-hydroxy-2,3a,5-trimethylfuro[2,3-d]-1,3-dioxole from Example 1a (1 ppm diacetyl trimer of formula (II) in aqueous 5 wt. % sucrose or 0.5% sodium chloride solution) was investigated for its flavouring action by 9 testers.
The aromatic and/or flavouring composition containing diacetyl dimer of formula (I) and diacetyl trimer of formula (II) from example (1b) (1 ppm of the composition in aqueous 5 wt. % sucrose or 0.5% sodium chloride solution) was investigated for its flavouring action by 7 testers.
For comparison, a flavour profile of diacetyl (1 ppm in aq. 5% sucrose or 0.5% sodium chloride solution) was produced under otherwise identical conditions: fatty (oily) (5), cream (5), butter (7), milk (4), condensed milk (4), fruity (2), cheesy (2), sweet (4), vanillin (2), intensity (7), impact (7), fullness (7), adhesive (5), soft (6).

[2] = Stability on heating and in formulations; assay type: physicochemical; conditions: for decomposition when heated: heated at 60° C. to 100° C. for 10 minutes
[3] = 1 ppm in aqueous 5 wt. % sucrose or 0.5% sodium chloride solution, scale 1 (scarcely perceptible) to 9 (highly perceptible)
[4] = 1 ppm in aqueous 5 wt. % sucrose or 0.5% sodium chloride solution, scale 1 to 9
[5] = 2 ppm in aqueous 5 wt. % sucrose or 0.5% sodium chloride solution, scale 1 to 9
[6] = 1 ppm in aq. 5% sucrose or 0.5% sodium chloride solution, scale 1 to 9

decomposition when heated [2] | Structure (SMILES) | flavour profile: fatty (oily) [1, 3] | flavour profile: adhesive [1, 4] | flavour profile: butter [1, 4] | flavour profile: cream [1, 4] | flavour profile: fullness [1, 4] | flavour profile: impact [1, 4] | flavour profile: intensity [1, 4] | flavour profile: soft [1, 4] | flavour profile: sweet [1, 4] | flavour profile: vanillin [1, 4] | also measured
does not decompose | CC(=O)C1(C)CC2(O)OC(C)(C(C)=O)OC2(C)O1 (racemic) [diacetyl trimer of formula (II), 2,5-diacetyl-3a,5,6,6a-tetrahydro-6a-hydroxy-2,3a,5-trimethylfuro[2,3-d]-1,3-dioxole] | 7 | 8 | 8 | 6 | 7 | 7 | 6 | 6 | 6 | 3 | flavour profile: caramel [1, 4]: 4; flavour profile: fresh cheese/quark [1, 4]: 4; flavour profile: toffee [1, 4]: 6
does not decompose | CC(=O)C1(C)CC(=O)C(C)(O)O1 (racemic) [diacetyl dimer of formula (I), 5-acetyl-2,5-dimethyl-2-hydroxy-tetrahydrofuran-3-one] |  |  |  |  |  |  |  |  |  |  | flavour profile: cream ([1]; 2 ppm in aqueous 5 wt. % sucrose or 0.5% sodium chloride solution, scale 1 (scarcely perceptible) to 9 (highly perceptible)): 5; flavour profile: butter [1, 5]: 5; flavour profile: caramel [1, 5]: 3; flavour profile: fullness [1, 5]: 6; flavour profile: intensity [1, 5]: 5; flavour profile: soft [1, 5]: 6; flavour profile: sweet [1, 5]: 5; flavour profile: toffee [1, 5]: 4; flavour profile: vanillin [1, 5]: 3; stability in formulations compared with diacetyl ([2]; nutrition, oral hygiene, luxury product or oral pharmaceutical formulations, in particular acidic or basic pH-value): significantly more stable than diacetyl
 | CC(=O)C(C)=O [diacetyl, 2,3-butanedione] | 5 | 5 | 7 | 5 | 7 | 7 | 7 | 6 | 4 | 2 | flavour profile: cheesy [1, 6]: 2; flavour profile: condensed milk [1, 6]: 4; flavour profile: fruity [1, 6]: 2; flavour profile: milk [1, 6]: 4
